Values after ≈ are worked out from the molar mass of the structure shown. Where two headings read alike, the source gives them in different places.

The text below walks through data of US9119853B2, “Sanglifehrin based compounds” (priority 2010, dated 2015).

In one data set the test system is HIV-1. The note with it: clinical, Steyn et al., 2006, cited from earlier work.
Another data set has as its system HBV. To be noted: Ptak et al. 2008; read-out: IC50 against HBV; cited from earlier work.
The target in data set [1] is T1, GST-CypD / Con1 NS5A-His complex (Homo sapiens, UniProt P30405). Kind of data set: ELISA analysis of Cyp-NS5A interaction (CypD-NS5A disruption). For orientation: In an ELISA, binding on a coated surface is turned into a signal by an enzyme label.
T1 sequence (P30405 30-207, one chain of several): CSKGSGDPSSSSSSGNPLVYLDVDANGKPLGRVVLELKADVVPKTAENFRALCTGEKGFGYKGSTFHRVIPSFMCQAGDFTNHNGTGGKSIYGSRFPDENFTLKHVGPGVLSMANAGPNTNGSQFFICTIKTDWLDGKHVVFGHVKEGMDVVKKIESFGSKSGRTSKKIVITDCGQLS
The target of a further data set is CyPA (Homo sapiens, UniProt P62937). The note with it: cited from earlier work.
Sequence of CyPA (P62937 whole entry): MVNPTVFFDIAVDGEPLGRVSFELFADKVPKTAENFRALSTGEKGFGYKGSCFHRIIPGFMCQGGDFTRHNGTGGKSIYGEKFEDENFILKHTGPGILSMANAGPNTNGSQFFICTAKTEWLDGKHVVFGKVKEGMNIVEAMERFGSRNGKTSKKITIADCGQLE
Data set [2] has as its system HCV genotype 1b I389luc-ubi-neo/NS3-3'/5.1 replicon in Huh5.2 cells. Briefly: microbe, parasite or virus in culture. Type of data set: cell-based, Hepatitis C Virus.
Data set [3] deals with peripheral blood mononuclear cells (PBMC). Briefly: Mixed lymphocyte reaction (MLR) for immunosuppressant activity. The note with it: for IC50: read-out: Human MLR IC50; for immunosuppressive activity (in words): MLR. Format: cell-based, human.
The test system of the next data set is Huh5.2 cells. Briefly: Anti-metabolic effect (MTS) in the replicon cell line. (Replicon systems follow genome replication, usually without infectious particles.)
For data set [4] the following is noted: pH 7.4.
Data set [5] has as its system HIV (pNL4.3-GFP / pNL4.3-BaL-GFP) in macrophages. Kind of data set: microbe, parasite or virus in culture. Type of data set: cell-based. To be noted: Human immunodeficiency virus 1, BAL, Macrophage, 48 h, read-out: Macrophages EC50.
In a further data set the test system is HepG2 2.2.15 cells. Briefly: Cell viability (dye uptake) in the HBV assay. Type of data set: cell-based. To be noted: at concentrations up to 32 μM. The method, then:
(§1) Antiviral efficacy against HBV may be tested as follows: HepG2 2.2.15 cells are plated in 96-well microtiter plates. After 16-24 hours the confluent monolayer of HepG2 2.2.15 cells is washed and the medium is replaced with complete medium containing various concentrations of a test compound in triplicate (eg six half-log concentrations). Three days later the culture medium is replaced with fresh medium containing the appropriately diluted test compounds. Six days following the initial administration of the test compound, the cell culture supernatant is collected, treated with pronase and then used in a real-time quantitative TaqMan qPCR assay. The PCR-amplified HBV DNA is detected in real-time by monitoring increases in fluorescence signals that result from the exonucleolytic degradation of a quenched fluorescent probe molecule that hybridizes to the amplified HBV DNA. For each PCR amplification, a standard curve is simultaneously generated using dilutions of purified HBV DNA. Antiviral activity is calculated from the reduction in HBV DNA levels (IC50). A dye uptake assay is then employed to measure cell viability, which is used to calculate toxicity (TC50). The therapeutic index (TI) is calculated as TC50/IC50.

Data set [6] is described as follows: Cell viability (dye uptake) in the HBV assay. Type of data set: cell-based. The note with it: human, HepG2 2.2.15 cells; read-out: TC50. The method, then:
as §1

The subject of data set [7] is HBV in HepG2 2.2.15 cells. Kind of data set: HBV antiviral assay (HBV DNA by qPCR). To be noted: for EC50: Hepatitis B virus, read-out: HBV EC50. Type of data set: cell-based, Hepatitis B Virus. A general note: Quantitative PCR measures a nucleic acid by following its amplification.
Data set [8] concerns HIV (pNL4.3-GFP / pNL4.3-BaL-GFP) in CD4+ HeLa cells. Kind of data set: microbe, parasite or virus in culture. Format: cell-based. To be noted: for EC50: Human immunodeficiency virus 1, BAL, HeLa, 48 h, read-out: HeLa cells EC50; for potency at inhibiting HIV infection compared to cyclosporine A, 1 (in words): four cell types.
In data set [9] the test system is HIV (pNL4.3-GFP / pNL4.3-BaL-GFP) in CD4+ T-lymphocytes. Briefly: microbe, parasite or virus in culture. The note with it: Human immunodeficiency virus 1, BAL, T-lymphocyte, 48 h, read-out: CD4+ T-lymphocytes EC50. Format: cell-based.
Data set [10] deals with HIV (pNL4.3-GFP / pNL4.3-BaL-GFP) in Jurkat cells. Briefly: microbe, parasite or virus in culture. The note with it: Human immunodeficiency virus 1, BAL, 48 h, read-out: T cells EC50. Format: cell-based.
A short description of another data set: physchem. To be noted: pH 7.4, aqueous buffer, kinetic from dmso stock.
The target of data set [11] is T1, GST-CypD / Con1 NS5A-His complex. Kind of data set: biochemical.
The nature of data set [12]: Anti-metabolic effect (MTS) in the replicon cell line. To be noted: human.
The mark [13] stands for this setting: Hepatitis C virus, Huh-5-2, 72 h.

For `C/C=C/C[C@@H](C)[C@@H](O)[C@H]1C(=O)N[C@@H](CC)C(=O)N(C)[C@H](C)C(=O)N(CC)[C@@H](C(C)C)C(=O)N[C@@H](C(C)C)C(=O)N(C)[C@@H](CC(C)C)C(=O)N[C@@H](C)C(=O)N[C@H](C)C(=O)N(C)[C@@H](CC(C)C)C(=O)N(C)[C@@H](CC(C)C)C(=O)N(C)[C@@H](C(C)C)C(=O)N1C` [DEBIO-025], the “reduction of HIV-1 RNA levels” value was ≥ 0.5 log10 copies/mL in the data set with HIV-1 (in nine patients) and > 1 log10 copies/mL with HIV-1 (in two patients). Further, the half-inhibitory concentration (IC50) (as a rule, the concentration needed to halve the response being measured) with HBV was 4100 nM.

With `CC[C@H]1C[C@H](C)[C@@]2(NC1=O)O[C@@H](C[C@H](O)[C@@H](C)CC/C=C/C=C(\C)[C@@H]1C/C=C/C=C/[C@H](O)[C@H](C)[C@@H](O)[C@@H](CCC(C)=O)C(=O)N[C@@H](C(C)C)C(=O)N[C@@H](Cc3cccc(O)c3)C(=O)N3CCC[C@H](N3)C(=O)O1)[C@H](C)[C@H](O)[C@@H]2C` [Sanglifehrin A, 5, Sanglifehrin A, reference compound], the figures for the IC50 in data set [1] and in data set [3] (3H-thymidine proliferation) were 370 nM and 215 nM, respectively. At CyPA, the “higher affinity for CyPA compared to CsA” value is recorded as “approximately 20 fold”. For the same compound, the EC50 (usually the midpoint of the concentration-response curve) in [2] (read-out: EC50) is 318 nM. Besides, the EC90 (as a rule, the concentration needed for an effect of 90%) in data set [2] (read-out: EC90) stood at 5500 nM. In the data set on Huh5.2 cells (Huh5.2 cells, MTS, 72 hours), this compound yielded a CC50 of 9100 nM. Besides, the “cytotoxicity against the cell line (in words)” value in the data set with Huh5.2 cells (as shown by CC50) was “more cytotoxicity”. Besides, the Solubility (as a rule, the dissolved amount per volume that the medium holds) in data set [4] was determined as 9.4 µM (≈ 10.2 µg/mL).

With `CON(C)C(=O)/C=C/C=C(\C)[C@@H]1C/C=C/C=C/C=C(\C)[C@@H](O)[C@@H](CCC(C)=O)C(=O)N[C@@H](C(C)C)C(=O)N[C@@H](Cc2cccc(O)c2)C(=O)N2CCCC(N2)C(=O)O1` (stereo partly shown) [compound 29], the “disruption of the CypD-NS5A complex (in words)” value (from here on “disruption”) in data set [1] was “potent disruption”. In addition, the EC50 in [5] was 310 nM; in data set [2] (setting [13]) it was 293 nM; in data set [7] (HepG2 2.2.15, six days), < 100 nM; in data set [8], 400 nM; in [9] it was 210 nM; in [10] it was 200 nM. Besides, in the data set on HepG2 2.2.15 cells, the “cytotoxicity in HBV assay (in words)” value is “no cytotoxicity”. Besides, the CC50 at 6 days in [6] was > 32000 nM. Moreover, the “Selectivity index (CC50/EC50)” value in [2] amounted to 68.4. Further, the “potency in the Huh5.2 replicon assay (in words)” value in data set [2] was “very potent”. Besides, in [2] (setting [13]), the EC90 was determined as 1500 nM. Moreover, the “inhibiting replication of HBV (in words)” value in [7] is “remarkably potent”. In addition, in data set [8], the “potency at inhibiting HIV infection compared to cyclosporine A, 1 (in words)” value is listed as “significantly more potent”. For the same compound, the Solubility in “physchem” amounted to 66 µM (≈ 53.2 µg/mL). In data set [11], half-maximal inhibition (IC50) was put at 250 nM. The same compound displayed a CC50 at 72 h in [12] of 20200 nM.

As for `CC(=O)CC[C@H]1C(=O)N[C@@H](C(C)C)C(=O)N[C@@H](Cc2cccc(O)c2)C(=O)N2CCCC(N2)C(=O)O[C@H](/C(C)=C/C=C/C(=O)Nc2ccccn2)C/C=C/C=C/[C@H](O)[C@H](C)[C@H]1O` (stereo partly shown) [compound 48], the “disruption” value in [1] is listed as “potent disruption”. Besides, the EC50 in data set [5] is 210 nM; in [2] (setting [13]) it was 167 nM; in data set [7] (HepG2 2.2.15, […]) it was > 32000 nM; in data set [8], 250 nM; in data set [9], 140 nM; in data set [10], 110 nM. In addition, in [6], the CC50 at 6 days was > 32000 nM. In data set [2], the “potency in the Huh5.2 replicon assay (in words)” value was “very potent”. The same compound yielded an EC90 in [2] (setting [13]) of 737 nM. Besides, the “potency at inhibiting HIV infection compared to cyclosporine A, 1 (in words)” value in [8] was “significantly more potent”. Further, the IC50 in data set [11] stood at 380 nM; in data set [3] (Homo sapiens, PBMC), 1060 nM. Also, the “immunosuppressive activity (in words)” value in [3] is “very low levels of immunosuppressive activity”. The compound also gave a CC50 at 72 h in data set [12] of 39700 nM.

Take `CC(=O)CC[C@H]1C(=O)N[C@@H](C(C)C)C(=O)N[C@@H](Cc2cccc(O)c2)C(=O)N2CCCC(N2)C(=O)O[C@H](/C(C)=C/C=C/C(=O)N2CCCCO2)C/C=C/C=C/[C@H](O)[C@H](C)[C@H]1O` (stereo partly shown) [compound 55]: in data set [1], the “disruption” value is on record as “potent disruption”. Also, the EC50 in data set [5] stood at 230 nM; in data set [2] (setting [13]) it was 125 nM; in data set [8], 310 nM; in data set [9] it was 150 nM; in [10], 220 nM. In data set [2], the “Selectivity index (CC50/EC50)” value is >800. Moreover, in [2], the “potency in the Huh5.2 replicon assay (in words)” value is on record as “very potent”. Moreover, in [2] (setting [13]), it took 691 nM to reach the 90% level (EC90). In addition, the “potency at inhibiting HIV infection compared to cyclosporine A, 1 (in words)” value in data set [8] was “significantly more potent”. For the same compound, the Solubility in “physchem” was > 100 µM. Further, the IC50 in data set [11] worked out at 230 nM; in [3] (Homo sapiens, PBMC) it was 1450 nM. For the same compound, the “immunosuppressive activity (in words)” value in data set [3] was “very low levels of immunosuppressive activity”. In data set [12], the CC50 at 72 h was > 100000 nM.
